Test results published in PubChem BioAssay (NCI).
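Interpolation was linear, between the two tested concentrations surrounding the appropriate level; five concentrations were tested over 48 hours in 96-well plates. GI50 = concentration required for 50% inhibition of growth. TGI: concentration producing complete growth inhibition.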

Experiments:
Experiment in all cases: NCI-60 cell line screen, 48 h
NCI-H23 lung = tested on: NCI-H23 lung
PC-3 prostate = tested on: PC-3 prostate
SN12C renal = tested on: SN12C renal
U251 CNS = tested on: U251 CNS
NCI-H460 lung = tested on: NCI-H460 lung
HS 578T breast = tested on: HS 578T breast
IGROV1 ovarian = tested on: IGROV1 ovarian
ACHN renal = tested on: ACHN renal
SK-MEL-28 melanoma = tested on: SK-MEL-28 melanoma
DU-145 prostate = tested on: DU-145 prostate
SNB-75 CNS = tested on: SNB-75 CNS
OVCAR-8 ovarian = tested on: OVCAR-8 ovarian
TK-10 renal = tested on: TK-10 renal
HL-60(TB) leukemia = tested on: HL-60(TB) leukemia
OVCAR-5 ovarian = tested on: OVCAR-5 ovarian
HCT-15 colon = tested on: HCT-15 colon
K-562 leukemia = tested on: K-562 leukemia
OVCAR-3 ovarian = tested on: OVCAR-3 ovarian
A498 renal = tested on: A498 renal
CCRF-CEM leukemia = tested on: CCRF-CEM leukemia
RPMI-8226 leukemia = tested on: RPMI-8226 leukemia
BT-549 breast = tested on: BT-549 breast
HCC-2998 colon = tested on: HCC-2998 colon
UO-31 renal = tested on: UO-31 renal
SNB-19 CNS = tested on: SNB-19 CNS
786-0 renal = tested on: 786-0 renal
MCF7 breast = tested on: MCF7 breast
MDA-MB-231 breast = tested on: MDA-MB-231 breast
SF-268 CNS = tested on: SF-268 CNS
OVCAR-4 ovarian = tested on: OVCAR-4 ovarian
UACC-62 melanoma = tested on: UACC-62 melanoma
RXF 393 renal = tested on: RXF 393 renal
NCI-H226 lung = tested on: NCI-H226 lung
SK-MEL-5 melanoma = tested on: SK-MEL-5 melanoma
MOLT-4 leukemia = tested on: MOLT-4 leukemia
A549 NSCLC = tested on: A549 NSCLC
UACC-257 melanoma = tested on: UACC-257 melanoma
EKVX NSCLC = tested on: EKVX NSCLC
HT29 colon = tested on: HT29 colon
SF-539 CNS = tested on: SF-539 CNS
T-47D breast = tested on: T-47D breast
SW-620 colon = tested on: SW-620 colon
HCT-116 colon = tested on: HCT-116 colon
NCI/ADR-RES ovarian = tested on: NCI/ADR-RES ovarian
COLO 205 colon = tested on: COLO 205 colon
SK-MEL-2 melanoma = tested on: SK-MEL-2 melanoma
KM12 colon = tested on: KM12 colon
MALME-3M melanoma = tested on: MALME-3M melanoma
SF-295 CNS = tested on: SF-295 CNS
SK-OV-3 ovarian = tested on: SK-OV-3 ovarian
MDA-MB-435 = tested on: MDA-MB-435
SR leukemia = tested on: SR leukemia
HOP-92 NSCLC = tested on: HOP-92 NSCLC
HOP-62 NSCLC = tested on: HOP-62 NSCLC
M14 melanoma = tested on: M14 melanoma
LOX IMVI melanoma = tested on: LOX IMVI melanoma
NCI-H522 lung = tested on: NCI-H522 lung

`O=c1ccccc(-c2ccc(Br)cc2)c1O` was tested. Which GI50 (NCI-H23 lung) did it give?
The GI50 was 528 nM.

And the TGI (NCI-H23 lung)?
Its TGI is 15800 nM.

And the GI50 (PC-3 prostate)?
The GI50 was 628 nM.

What about the TGI (PC-3 prostate) of the same compound?
Its TGI is 37300 nM.

What about the GI50 (SN12C renal) of the same compound?
The GI50 was 829 nM.

And the TGI (SN12C renal)?
Its TGI is 16400 nM.

And the GI50 (U251 CNS)?
The GI50 was 383 nM.

What about the TGI (U251 CNS) of the same compound?
The TGI was 13600 nM.

What about the GI50 (NCI-H460 lung) of the same compound?
The GI50 was 318 nM.

And the TGI (NCI-H460 lung)?
Its TGI is 10600 nM.

What about the GI50 (HS 578T breast) of the same compound?
The GI50 was 4610 nM.

What about the TGI (HS 578T breast) of the same compound?
Its TGI is 83800 nM.

What about the GI50 (IGROV1 ovarian) of the same compound?
The GI50 was 432 nM.

And the TGI (IGROV1 ovarian)?
Its TGI is > 100000 nM.

And the GI50 (ACHN renal)?
Its GI50 is 367 nM.

What about the TGI (ACHN renal) of the same compound?
The TGI was 25100 nM.

And the GI50 (SK-MEL-28 melanoma)?
The GI50 was 489 nM.

What about the TGI (SK-MEL-28 melanoma) of the same compound?
Its TGI is 26400 nM.

And the GI50 (DU-145 prostate)?
The GI50 was 595 nM.

And the TGI (DU-145 prostate)?
Its TGI is 45000 nM.

And the GI50 (SNB-75 CNS)?
Its GI50 is 611 nM.

What about the TGI (SNB-75 CNS) of the same compound?
Its TGI is 27600 nM.

And the GI50 (OVCAR-8 ovarian)?
Its GI50 is 383 nM.

And the TGI (OVCAR-8 ovarian)?
The TGI was > 100000 nM.

What about the GI50 (TK-10 renal) of the same compound?
Its GI50 is 541 nM.

What about the TGI (TK-10 renal) of the same compound?
Its TGI is 70700 nM.

What about the GI50 (HL-60(TB) leukemia) of the same compound?
Its GI50 is 262 nM.

What about the TGI (HL-60(TB) leukemia) of the same compound?
Its TGI is 718 nM.

What about the GI50 (OVCAR-5 ovarian) of the same compound?
Its GI50 is 725 nM.

What about the TGI (OVCAR-5 ovarian) of the same compound?
The TGI was > 100000 nM.

And the GI50 (HCT-15 colon)?
The GI50 was 256 nM.

What about the TGI (HCT-15 colon) of the same compound?
Its TGI is 36000 nM.

What about the GI50 (K-562 leukemia) of the same compound?
Its GI50 is 463 nM.

What about the TGI (K-562 leukemia) of the same compound?
The TGI was > 100000 nM.

What about the GI50 (OVCAR-3 ovarian) of the same compound?
The GI50 was 412 nM.

And the TGI (OVCAR-3 ovarian)?
Its TGI is 27600 nM.

What about the GI50 (A498 renal) of the same compound?
The GI50 was 1210 nM.

What about the TGI (A498 renal) of the same compound?
Its TGI is 7680 nM.

And the GI50 (CCRF-CEM leukemia)?
The GI50 was 291 nM.

What about the TGI (CCRF-CEM leukemia) of the same compound?
The TGI was > 100000 nM.

What about the GI50 (RPMI-8226 leukemia) of the same compound?
The GI50 was 401 nM.

What about the TGI (RPMI-8226 leukemia) of the same compound?
The TGI was 25000 nM.

What about the GI50 (BT-549 breast) of the same compound?
The GI50 was 795 nM.

And the TGI (BT-549 breast)?
The TGI was 54000 nM.

What about the GI50 (HCC-2998 colon) of the same compound?
Its GI50 is 425 nM.

What about the TGI (HCC-2998 colon) of the same compound?
The TGI was 21800 nM.

And the GI50 (UO-31 renal)?
Its GI50 is 369 nM.

What about the TGI (UO-31 renal) of the same compound?
Its TGI is 20400 nM.

And the GI50 (SNB-19 CNS)?
Its GI50 is 459 nM.

And the TGI (SNB-19 CNS)?
Its TGI is > 100000 nM.

What about the GI50 (786-0 renal) of the same compound?
The GI50 was 408 nM.

And the TGI (786-0 renal)?
Its TGI is 21700 nM.

And the GI50 (MCF7 breast)?
Its GI50 is 311 nM.

What about the TGI (MCF7 breast) of the same compound?
The TGI was 46800 nM.

What about the GI50 (MDA-MB-231 breast) of the same compound?
Its GI50 is 737 nM.

What about the TGI (MDA-MB-231 breast) of the same compound?
The TGI was 35700 nM.

And the GI50 (SF-268 CNS)?
Its GI50 is 420 nM.

And the TGI (SF-268 CNS)?
The TGI was > 100000 nM.

What about the GI50 (OVCAR-4 ovarian) of the same compound?
The GI50 was 330 nM.

And the TGI (OVCAR-4 ovarian)?
The TGI was 27300 nM.

And the GI50 (UACC-62 melanoma)?
Its GI50 is 298 nM.

And the TGI (UACC-62 melanoma)?
The TGI was 1730 nM.

What about the GI50 (RXF 393 renal) of the same compound?
The GI50 was 324 nM.

What about the TGI (RXF 393 renal) of the same compound?
Its TGI is 8120 nM.

And the GI50 (NCI-H226 lung)?
Its GI50 is 1040 nM.

And the TGI (NCI-H226 lung)?
The TGI was 16600 nM.

And the GI50 (SK-MEL-5 melanoma)?
The GI50 was 247 nM.

And the TGI (SK-MEL-5 melanoma)?
Its TGI is 701 nM.

What about the GI50 (MOLT-4 leukemia) of the same compound?
The GI50 was 334 nM.

What about the TGI (MOLT-4 leukemia) of the same compound?
The TGI was > 100000 nM.

And the GI50 (A549 NSCLC)?
The GI50 was 322 nM.

And the TGI (A549 NSCLC)?
The TGI was 24000 nM.

What about the GI50 (UACC-257 melanoma) of the same compound?
Its GI50 is 230 nM.

And the TGI (UACC-257 melanoma)?
The TGI was 8760 nM.

What about the GI50 (EKVX NSCLC) of the same compound?
The GI50 was 343 nM.

What about the TGI (EKVX NSCLC) of the same compound?
The TGI was 15000 nM.

What about the GI50 (HT29 colon) of the same compound?
Its GI50 is 6440 nM.

And the TGI (HT29 colon)?
The TGI was 36800 nM.

And the GI50 (SF-539 CNS)?
The GI50 was 458 nM.

And the TGI (SF-539 CNS)?
Its TGI is 12100 nM.

And the GI50 (T-47D breast)?
Its GI50 is 562 nM.

And the TGI (T-47D breast)?
Its TGI is 41300 nM.

And the GI50 (SW-620 colon)?
The GI50 was 410 nM.

What about the TGI (SW-620 colon) of the same compound?
The TGI was 40500 nM.

What about the GI50 (HCT-116 colon) of the same compound?
The GI50 was 404 nM.

And the TGI (HCT-116 colon)?
Its TGI is 14600 nM.

And the GI50 (NCI/ADR-RES ovarian)?
The GI50 was 289 nM.

And the TGI (NCI/ADR-RES ovarian)?
Its TGI is 2370 nM.

And the GI50 (COLO 205 colon)?
The GI50 was 466 nM.

What about the TGI (COLO 205 colon) of the same compound?
The TGI was 27000 nM.

And the GI50 (SK-MEL-2 melanoma)?
The GI50 was 957 nM.

What about the TGI (SK-MEL-2 melanoma) of the same compound?
The TGI was 25800 nM.

What about the GI50 (KM12 colon) of the same compound?
The GI50 was 430 nM.

What about the TGI (KM12 colon) of the same compound?
The TGI was 22600 nM.

What about the GI50 (MALME-3M melanoma) of the same compound?
Its GI50 is 2180 nM.

What about the TGI (MALME-3M melanoma) of the same compound?
The TGI was 47700 nM.

And the GI50 (SF-295 CNS)?
The GI50 was 340 nM.

And the TGI (SF-295 CNS)?
Its TGI is 16800 nM.

And the GI50 (SK-OV-3 ovarian)?
Its GI50 is 428 nM.

And the TGI (SK-OV-3 ovarian)?
Its TGI is 24100 nM.

And the GI50 (MDA-MB-435)?
Its GI50 is 386 nM.

And the TGI (MDA-MB-435)?
The TGI was > 100000 nM.

What about the GI50 (SR leukemia) of the same compound?
The GI50 was 316 nM.

What about the TGI (SR leukemia) of the same compound?
The TGI was 17100 nM.

And the GI50 (HOP-92 NSCLC)?
Its GI50 is 6530 nM.

What about the TGI (HOP-92 NSCLC) of the same compound?
The TGI was 34100 nM.

And the GI50 (HOP-62 NSCLC)?
Its GI50 is 377 nM.

What about the TGI (HOP-62 NSCLC) of the same compound?
Its TGI is 15900 nM.

And the GI50 (M14 melanoma)?
The GI50 was 316 nM.

What about the TGI (M14 melanoma) of the same compound?
The TGI was 13100 nM.

And the GI50 (LOX IMVI melanoma)?
Its GI50 is 323 nM.

And the TGI (LOX IMVI melanoma)?
The TGI was 13800 nM.

And the GI50 (NCI-H522 lung)?
Its GI50 is 461 nM.

And the TGI (NCI-H522 lung)?
The TGI was 40900 nM.
